Reference: patent publication US20120315283A1, “METHODS OF PROMOTING TISSUE GROWTH AND TISSUE REGENERATION” (DANA-FARBER CANCER INSTITUTE, INC., priority 2010, published 2012)
Entries after “also recorded” stand apart in the source; their conditions may differ.

What was measured:
[1] = system: Lewis lung carcinoma (LLC); test: Spontaneous LLC metastasis model (primary tumor resection); format: in vivo, mouse; conditions: for spontaneous LLC lung metastasis / spontaneous LLC liver, kidney and lymph node metastasis: after LLC resection, 12 days, t-AUCB and TUPS 10 mg/kg/day; for spontaneous LLC lung metastasis: 14,15-EET and 14,15-DHET 15 μg/kg/day; for spontaneous LLC liver, kidney and lymph node metastasis: 14,15-EET 15 μg/kg/day, vehicle-treated mice do not develop liver metastasis; for 14,15-EET-induced spontaneous LLC (lung) metastasis: EET antagonist 0.21 mg/mouse co-administered with 14,15-EET 15 μg/kg/day following LLC resection, day 12
Excerpt: The role of non-cell autonomous effects of endothelial-derived EETs in tumor metastasis was unknown.

[2] = system: Lewis lung carcinoma (LLC); test: Primary LLC tumor growth; format: in vivo, mouse; conditions: for primary LLC tumor growth: systemic, 14,15-EET 15 μg/kg/day minipump, t-AUCB in LLC-GFP tumors, 13 days of treatment, 14,15-EEZE 0.21 mg/mouse, established tumors
mice [3] = test: Endometriosis (ectopically implanted uterine tissue); format: in vivo, mouse; conditions: systemic 14,15-EET 15 μg/kg/day via minipump
VEGF production = test: β-galactosidase staining of LLC tumors in VEGF-LacZ-Tr mice; format: in vivo, mouse; conditions: systemic 14,15-EET 15 μg/kg/day, absent in non-treated size-matched tumors
Excerpt: However, analysis of LLC tumors in VEGF-LacZ-Tr mice in which the LacZ reporter was introduced into the VEGF locus (A. S. Maharaj, M. Saint-Geniez, A. E. Maldonado, P. A. D'Amore, Am J Pathol 168, 639 2006).

LLC tumor cells [4] = test: In vitro tumor cell production of VEGF, LLC; format: cell-based, mouse; conditions: 14,15-EET
B16F10 tumor cells = test: In vitro tumor cell production of VEGF, B16F10; format: cell-based, mouse; conditions: 14,15-EET
mice [5] = test: Liver regeneration following partial hepatectomy; format: in vivo, mouse; conditions: day 4 following partial hepatectomy, 14,15-EET 15 μg/kg/day via minipump, TUPS 10 mg/kg/day; for liver regeneration: vs vehicle/control; for increase in liver regeneration (liver/body weight ratio): vs vehicle
Excerpt: There were no significant differences in liver/body weight ratio at baseline or following sham operation (FIG. 6D). […] Endothelial cell proliferation was increased in the Tie2-CYP2C8-Tr mice when compared to WT mice (FIG. 6D).

endothelial cells = test: Endothelial cell migration; format: cell-based
LLC tumor cells [6] = test: Tumor cell (LLC) migration; format: cell-based, mouse; conditions: 14,15-EEZE
mice [7] = test: Lung growth following left pneumonectomy; format: in vivo, mouse; conditions: day 4 post left pneumonectomy, vs vehicle-treated mice, p<0.05
Excerpt: As shown herein, epoxyeicosatrienoic acids (EETs) stimulate angiogenesis, in part via the VEGF signaling network. Since compensated lung growth is dependent on VEGF-induced angiogenesis, it was hypothesized that endothelial cells (ECs) stimulate lung growth via production of EETs. To confirm the effects of CYP2C8 overexpression, EET levels were increased by inhibition of soluble epoxide hydrolase (sEH) following left penumonectomy. […] In contrast, there was no significant change in baseline lung volume/body weight ratio after sham operation.
As shown herein, epoxyeicosatrienoic acids (EETs) stimulate angiogenesis, in part via the VEGF signaling network. Since compensated lung growth is dependent on VEGF-induced angiogenesis, it was hypothesized that endothelial cells (ECs) stimulate lung growth via production of EETs. Transgenic (Tg) mice with EC-specific overexpression of CYP2C8 (Tie2 promoter-driven) were used to study the consequence of increased EETs on lung growth following left pneumonectomy. To confirm the effects of CYP2C8 overexpression, EET levels were increased by inhibition of soluble epoxide hydrolase (sEH). EC-specific overexpression of CYP2C8 promoted contralateral lung growth following unilateral pneumectomy. Lung volume/body weight on day 4 post-pneumonectomy were increased by 23% (p<0.001) in Tg mice compared to WT mice (FIG. 12). […]

mice [8] = test: Wound healing (ear punch wound assay); format: in vivo, mouse; conditions: systemic TUPS 10 mg/kg/day, day 4, vs vehicle
Excerpt: In one embodiment, a full-thickness wound is effected by removing a section of skin (e.g., 1.5 mm diameter) from the dorsal surface (e.g., back) of an anesthetized animal by e.g., surgical incision. If so desired, the section of skin to be wounded can be pre-treated with a candidate pro-angiogenic factor prior to wound induction by e.g., subcutaneous injection. Alternatively, the wound can be treated using a candidate pro-angiogenic factor coincident with or immediately following wounding using methods known to one of skill in the art. The size, area, rate of healing, contraction and histology of the wound are assessed at different time points by methods known to those of skill in the art. The wound size of an animal is assessed by measuring the unclosed wound area compared to the original wound area. Wound healing can be expressed as either percent wound closure or percent wound closure rate. Wounds can be harvested at different time points by euthanizing the animal and removing a section of skin surrounding the wound site for histological analysis if so desired.
An ear punch model can also be used to assess rates of angiogenesis or wound healing, in a design similar to that for the full thickness dorsal back skin assay. The model consists of wounding the ear of an animal using a circular punch of a standard size (e.g., 2.25 mm). […]

B16F10 melanoma = test: Spontaneous B16F10 metastasis after primary tumor resection; format: in vivo, mouse; conditions: 21 days of treatment post B16F10 resection, 10 mg/kg/day
[9] = TSP1 null mice, 14,15-EEZE 0.21 mg/mouse

CCCCCC(O)C(O)C/C=C\C/C=C\C/C=C\CCCC(=O)O (centres unmarked) [14,15-DHET]
spontaneous LLC lung metastasis [1]: has no effect relative to control; also recorded: does not stimulate metastasis

CCCCCC1OC1C/C=C\C/C=C\C/C=C\CCCC(=O)O (centres unmarked) [14,15-EET]
increase in the number of surface lung metastases ([1]; WT mice, 14,15-EET via osmotic mini-pumps at time of LLC resection, 12 days after resection, vs vehicle): 3 fold
spontaneous LLC liver, kidney and lymph node metastasis [1]: induction of liver, kidney and distant lymph node metastasis; also recorded: increases spontaneous LLC lung metastasis and distant femoral lymph node metastasis
spontaneous LLC lung metastasis [1]: increases spontaneous lung and distant femoral lymph node metastasis; also recorded: increases spontaneous LLC lung metastasis
primary LLC tumor growth [2]: significantly accelerated primary LLC tumor growth; also recorded: increases primary LLC tumor growth
increase in endometriosis (mice [3]; WT mice, day 6, vs vehicle): 254%
endometriosis (mice [3]; day 6, percent of lesions established and area of established lesions): endometriosis is stimulated
β-galactosidase staining (marker of VEGF production) in tumor endothelium and stromal fibroblasts (VEGF production): show β-galactosidase staining; also recorded: stained positively
VEGF production by LLC tumor cells in vitro (LLC tumor cells [4]): no significant effect
VEGF production by B16F10 tumor cells in vitro (B16F10 tumor cells): no significant effect
liver regeneration (mice [5]): stimulates liver regeneration
increase in liver regeneration (liver/body weight ratio) (mice [5]): 21%

CCCCCC1OC1CCCCCCCC=CCCCC(=O)NS(C)(=O)=O (centres unmarked) [14,15-EEZE-mSI]
14,15-EET-induced spontaneous LLC (lung) metastasis [1]: inhibits lung metastasis induced by 14,15-EET; also recorded: inhibits 14,15-EET- (15 μg/kg/day) induced spontaneous LLC metastasis

CCCCCC1OC1CCCCCCC/C=C\CCCC(=O)O (centres unmarked) [14,15-EEZE]
14,15-EET-induced spontaneous LLC (lung) metastasis [1]: reduced lung metastasis
14,15-EET-induced macroscopic liver and lymph node metastasis ([1]; EET antagonist co-administered with 14,15-EET following LLC resection): prevented macroscopic liver and lymph node metastasis
survival ([1]; LLC resection metastasis model, 14,15-EEZE 0.21 mg/mouse): prolongs survival
plasma VEGF levels ([1]; spontaneous LLC lung metastasis model, 14,15-EEZE 0.21 mg/mouse): reduces plasma VEGF levels
primary LLC tumor growth in TSP1 null mice [2, 9]: does not significantly inhibit primary LLC tumor growth
tumor suppression by the EET antagonist [2, 9]: 24%
tumor suppression by the EET antagonist ([2]; WT mice, 14,15-EEZE 0.21 mg/mouse): 62%
primary LLC tumor growth [2]: reduced primary LLC growth; also recorded: inhibits primary LLC growth
endothelial cell migration (VEGF-induced), inhibition (endothelial cells; 14,15-EEZE, dose-dependent): inhibited endothelial migration in a dose-dependent fashion; also recorded: inhibits VEGF-induced endothelial cell
migration of LLC tumor cells (LLC tumor cells [6]): no significant effect; also recorded: not tumor cell (LLC) migration

CS(=O)(=O)N1CCC(NC(=O)Nc2ccc(OC(F)(F)F)cc2)CC1 [TUPS, 1-(1-methanesulfonyl-piperidin-4-yl)-3-(4-trifluoromethoxy-phenyl)-urea]
spontaneous LLC liver, kidney and lymph node metastasis [1]: induces spontaneous liver metastasis; also recorded: dramatically stimulated; also recorded: increase liver metastasis
spontaneous LLC lung metastasis [1]: dramatically stimulated
VEGF-mediated endothelial migration (endothelial cells; VEGF-mediated): stimulate VEGF-mediated endothelial migration
basal endothelial migration (endothelial cells; basal, without VEGF): no significant effects
lung growth/body weight (lung regeneration) (mice [7]): increase in lung regeneration; also recorded: stimulated lung growth/body weight
wound healing (mice [8]): accelerates wound healing; also recorded: significantly accelerated wound healing
liver regeneration (mice [5]): increases liver regeneration
increase in liver regeneration (liver/body weight ratio) (mice [5]): 38%
spontaneous B16F10 axillary lymph node metastasis (B16F10 melanoma): dramatically stimulated; also recorded: increase spontaneous B16F10 axillary lymph node metastasis
